Results taken from patent publication US20250099420A1, “SMALL MOLECULE MODULATORS OF GPR139 COMPLEX” (University of Florida Research Foundation, Incorporated, priority 2022, published 2025).
Like-named read-outs stand apart in the source and are kept apart here.

Columns and labels:
parental HEK cells = assay: HEK parental Agonist Counterscreen Assay (non-transfected cells); assay type: cell-based; conditions: for Averaged Max % Response (±St. Dev.): activity relative to known control
From the text: The high control for the agonist counterscreen was Forskolin not acetylcholine.

GPR139 = target: T1, GPR139 (Homo sapiens, UniProt Q6DWJ6); assay: GPR139 Agonist titration / agonist counterscreen assay (calcium detection, HEK-GPR139 cells); assay type: cell-based; design: expressed in transfected cells; host or cells: HEK Aequorin cells, Maxcyte transient transfection; conditions: GPR139 Agonist Activity; for Averaged Max % Response (±St. Dev.): activity relative to known control; for EC50: read-out: EC50
T1 sequence (Q6DWJ6 1-353): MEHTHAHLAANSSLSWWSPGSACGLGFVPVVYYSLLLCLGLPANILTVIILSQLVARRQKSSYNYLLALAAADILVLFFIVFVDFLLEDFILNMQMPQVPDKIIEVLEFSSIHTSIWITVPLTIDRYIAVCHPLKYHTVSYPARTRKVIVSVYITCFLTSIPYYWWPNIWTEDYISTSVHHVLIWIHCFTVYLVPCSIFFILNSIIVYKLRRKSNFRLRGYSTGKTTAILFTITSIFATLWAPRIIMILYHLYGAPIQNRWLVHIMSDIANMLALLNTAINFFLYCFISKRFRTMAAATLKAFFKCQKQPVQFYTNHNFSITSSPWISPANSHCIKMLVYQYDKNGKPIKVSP
Protocol: GPR activity was assessed using a calcium detection assay. […] Negative control samples were treated with DMSO. […] Intracellular calcium was measured using Calcium 5.

[1] = Homo sapiens, HEK293, HEK Agonist Activity, parental non-transfected HEK cells
[2] = values printed in E-notation without unit
[3] = Homo sapiens, HEK293, HEK Agonist Activity section of Table 4 (parental HEK counterscreen)
[4] = HEK Agonist Activity section of Table 4 (parental HEK counterscreen)

SMILES | Lipophilic Efficiency (logD) (parental HEK cells; HEK Agonist Activity) | Lipophilic Efficiency (logP) (parental HEK cells; HEK Agonist Activity) | Averaged Max % Response (±St. Dev.) (GPR139) [%] | Lipophilic Efficiency (logD) (GPR139; based on logD) | Lipophilic Efficiency (logP) (GPR139; based on logP) | Hill Slope (GPR139; fitted dose-response curve) | Efficiency Ligand (GPR139; ligand efficiency) | EC50 (GPR139; [2]) [nM] | Lipophilic Efficiency (logD) (parental HEK cells; HEK Agonist Activity section) | Lipophilic Efficiency (logP) (parental HEK cells; HEK Agonist Activity section) | Efficiency Ligand (GPR139) | Hill Slope (GPR139) | Lipophilic Efficiency (logD) (GPR139) | Lipophilic Efficiency (logP) (GPR139) | EC50 (GPR139; HEK-GPR139 cells) [nM] | Averaged Max % Response (±St. Dev.) (parental HEK cells; HEK Agonist Activity) [%] | EC50 (parental HEK cells; [1]) [nM] | Averaged Max % Response (±St. Dev.) (parental HEK cells; HEK Agonist Activity section) [%] | EC50 (parental HEK cells; [3]) [nM] | other results
Cc1ccc(CCNC(=O)Cn2cc3c(n2)CCCCC3)cc1 [SR-01000088477] | 1.26 | 1.26 | 120.85 ± 28.06 | 4.18 | 4.18 | 0.72 | 0.47 |  |  |  |  |  |  |  |  | −0.30 ± 8.57 | > 14100 |  |  | 
Cc1c(C(=O)NC(C)(C)CO)cnn1-c1ncc2c(n1)-c1ccccc1CC2 [SR-01000239973] | 2.16 | 2.16 | 105.15 ± 8.65 | 5.11 | 5.11 | 0.92 | 0.39 | 15.7 |  |  |  |  |  |  |  | −7.52 ± 3.99 | > 14100 |  |  | 
CCCCC(O)CCNC(=O)C1CC(=O)N(CCc2ccc(C)cc2)C1 (stereo not drawn) [SR-01000145701] |  |  | 114.02 ± 14.51 |  |  |  |  |  | 4.13 | 2.54 | 0.34 | 0.99 | 5.67 | 4.07 | 414 |  |  | 10.54 ± 1.83 | > 14100 | 
O=C(Cn1ncc2c1-c1ccccc1OC2)Nc1ccc(Cl)cc1 [SR-01000098980] |  |  | 103.90 ± 24.19 |  |  |  |  |  | 1.77 | 1.77 | 0.36 | 0.43 | 3.09 | 3.09 | 680 |  |  | 16.39 ± 16.07 |  | EC50 (parental HEK cells; [4]): > 14100 nM
Cc1cccc(CCNC(=O)c2c[nH]c3cc(-c4cn[nH]c4)ccc23)c1 [SR-00000007279] | 2.30 | 2.29 | 142.11 ± 3.85 | 4.81 | 4.80 | 0.18 | 0.38 | 43.1 |  |  |  |  |  |  |  | 17.20 ± 7.85 | > 14100 |  |  | 

Now from value to compound, other results behind:

Lipophilic Efficiency (logD) (parental HEK cells; HEK Agonist Activity) | Lipophilic Efficiency (logP) (parental HEK cells; HEK Agonist Activity) | Averaged Max % Response (±St. Dev.) (GPR139) [%] | Lipophilic Efficiency (logD) (GPR139; based on logD) | Lipophilic Efficiency (logP) (GPR139; based on logP) | Hill Slope (GPR139; fitted dose-response curve) | Efficiency Ligand (GPR139; ligand efficiency) | EC50 (GPR139; [2]) [nM] | Lipophilic Efficiency (logD) (parental HEK cells; HEK Agonist Activity section) | Lipophilic Efficiency (logP) (parental HEK cells; HEK Agonist Activity section) | Efficiency Ligand (GPR139) | Hill Slope (GPR139) | Lipophilic Efficiency (logD) (GPR139) | Lipophilic Efficiency (logP) (GPR139) | EC50 (GPR139; HEK-GPR139 cells) [nM] | SMILES | Averaged Max % Response (±St. Dev.) (parental HEK cells; HEK Agonist Activity) [%] | EC50 (parental HEK cells; [1]) [nM] | Averaged Max % Response (±St. Dev.) (parental HEK cells; HEK Agonist Activity section) [%] | EC50 (parental HEK cells; [3]) [nM] | other results
1.03 | 1.03 | 81.78 ± 16.61 | 4.85 | 4.85 |  | 0.38 |  |  |  |  |  |  |  |  | Cc1c2cnn(CC(=O)NC(C)c3ccccc3)c(=O)c2c(C)n1Cc1ccc(F)cc1 (stereo not drawn) [SR-01000138428] | −0.31 ± 7.41 |  |  |  | EC50 (parental HEK cells; HEK Agonist Activity, parental non-transfected HEK cells): > 14100 nM
 |  | 84.05 ± 13.31 |  |  |  |  |  | 1.45 | 1.38 | 0.28 | 1.29 | 3.07 | 3.01 | 332 | O=C(NCCCn1ccnc1)c1cc2nc3c(c(C(F)(F)F)n2n1)CCc1ccccc1-3 [SR-01000313440] |  |  | 0.31 ± 4.15 | > 14100 | 
 |  | 100.35 ± 10.43 | 6.65 | 6.65 | 0.39 | 0.37 | 79.7 | 4.40 | 4.40 |  |  |  |  |  | COc1ccccc1NC(=O)NNC(=O)CN1C(=O)COc2ccccc21 [SR-01000336035] |  |  | −5.99 ± 6.97 | > 14100 | 
 |  | 80.01 ± 6.26 |  |  |  |  |  | 2.31 | 2.31 | 0.28 | 0.49 | 3.17 | 3.17 | 2000 | COc1ccc2cc(CCNC(=O)/C=C\c3ccc4c(c3)OCO4)c(=O)[nH]c2c1 [SR-01000124392] |  |  | 5.97 ± 7.64 |  | EC50 (parental HEK cells; [4]): > 14100 nM
